pIC50: −log10 of the molar value. Structures can show the parent of a compound that is named as a salt. Where two headings read alike, the source gives them in different places.
Experiments:
[1] = system: E. coli GC 2009 (TEM-10); assay: MIC microbroth dilution; β-lactamase class A (ESBL); type: cell-based; settings: E. coli GC 2009; Cefepime + 4 ug/ml Compound 1
Method: (§1) The in vitro activities of the antibiotics were determined by the microbroth dilution method as recommended by the National Committee for Clinical Laboratory Standards (NCCLS). (NCCLS. 2000. Methods for Dilution Antimicrobial Susceptibility Tests for Bacteria That Grow Aerobically; Approved Standards: M7-A5, vol. 19. National Committee for Clinical Laboratory Standards, Villanova, Pa.). Mueller-Hinton II broth (MHBII)(BBL Cockeysville, Md.), was used for the testing procedure. […]. The plates were incubated for 18-22 hours at 35° C. in ambient air.

[2] = target: class A β-lactamase TEM-1 (Escherichia coli, UniProt P62593); assay: β-Lactamase inhibition IC50 (nitrocefin, spectrophotometric); type: biochemical, E. coli; settings: enzyme 4.3 nM, 10 min preincubation at 25° C.
Method: β-Lactamase inhibitory activity of the penem inhibitors was determined spectrophotometrically as described by Bush et al., [Bush, K., Macalintal, C., Rasmussen, B. A., Lee, V. and Yang, Y. Antimicrobial Agents and Chemotherapy 1993, 37, 851]. Homogeneously purified class A β-lactamases TEM-1 from E. coli and Imi-1 from Enterobacter cloacae, class B enzyme CcrA from Bacteroides fragilis and class C enzyme AmpC from Enterobacter cloacae were employed in the assay. The enzyme concentrations for TEM-1, Imi-1, CcrA and AmpC were 4.3, 7.1, 1.2 and 2.1 nM, respectively. A wide range of inhibitor concentrations were prepared in 50 mM PO4, pH 7.0 to include the possible IC50 values. The substrate used to initiate the enzyme reaction was nitrocefin at 50 μg/ml in the same buffer as the inhibitor. Initially the enzyme and inhibitor (20 μl each) were preincubated for 10 minutes at 25° C. prior to the addition of 160 μl volume of nitrocefin. Initial rates of hydrolysis were monitored for 5 minutes at 495 nm using a Molecular Devices Spectra Max 250 with kinetic protocol of SoftMax Program. Readings from the Spectra Max 250 were exported and transferred to Microsoft Excel. The percent of inhibition of each inhibitor concentration was calculated based on the control enzyme activity. The inhibitor concentration that caused a 50% reduction in the enzymatic activity (IC50) was determined graphically.

[3] = system: K. pneumoniae GC 7645 TEM-30 TEM-1 KPC-2 SHV-12; assay: MIC microbroth dilution; β-lactamase class A, A (Cb'ase), A (ESBL), A(IRT); type: cell-based; settings: K. pneumoniae GC 7645; Cefepime + 4 ug/ml Compound 1
Method: as §1

[4] = system: E. coli GC 2253 (IRT-2); assay: MIC microbroth dilution; β-lactamase class A (IRT); type: cell-based; settings: Cefepime + 4 ug/ml Compound 1
Method: as §1

[5] = system: K. pn GC 6639 (SHV-13); assay: MIC microbroth dilution; β-lactamase class A (ESBL); type: cell-based, K. pneumoniae
Method: as §1

[6] = system: K. pn GC 1516 (TEM-26); assay: as above; type: cell-based, K. pneumoniae
Method: as §1

[7] = system: K. pn GC 1832 (SHV-4); assay: as above; type: cell-based, K. pneumoniae
Method: as §1

[8] = system: K. pn GC 1510 (TEM-10); assay: as above; type: cell-based, K. pneumoniae
Method: as §1

[9] = system: K. pn GC 1830 (SHV-2); assay: as above; type: cell-based, K. pneumoniae
Method: as §1

[10] = system: P. aeruginosa PT 9025 PTZ-R; assay: MIC microbroth dilution; type: cell-based; settings: P. aeruginosa PT 9025; Cefepime + 4 ug/ml Compound 1
Method: as §1

[11] = system: A. baumannii PT 9444 PTZ-R; assay: MIC microbroth dilution; β-lactamase class not determined; type: cell-based; settings: A. baumannii PT 9444; Cefepime + 4 ug/ml Compound 1
Method: as §1

[12] = system: K. pn GC 1507 (TEM-9 + SHV-1); assay: MIC microbroth dilution; β-lactamase class A, A (ESBL); type: cell-based, K. pneumoniae
Method: as §1

[13] = system: K. pn GC 6657 (TEM-1 + SHV-27); assay: as above; type: cell-based, K. pneumoniae
Method: as §1

[14] = system: K. pn GC 3057 (CAZ-R; P/T-R); assay: as above; type: cell-based, K. pneumoniae
Method: as §1

[15] = system: K. pn GC 6494 (TEM-1 + SHV-5); assay: as above; type: cell-based, K. pneumoniae
Method: as §1

[16] = system: K. pn GC 1554 (TEM-1 + TEM-26 + SHV-1); assay: as above; type: cell-based, K. pneumoniae
Method: as §1

[17] = system: E. coli GC 2906 (Imi-1); assay: MIC microbroth dilution; β-lactamase class A (Cb'ase); type: cell-based; settings: Cefepime + 4 ug/ml Compound 1
Method: as §1

[18] = system: E. coli GC 2847 (TEM-1); assay: MIC microbroth dilution; β-lactamase class A; type: cell-based
Method: as §1

[19] = system: E. coli GC 2149 (ACT-1; TEM-1 + pl 5.6); assay: MIC microbroth dilution; β-lactamase class A, A (ESBL), C; type: cell-based
Method: as §1

[20] = system: K. pneumoniae GC 2826 Act 1 + 3 additional; assay: as above; type: cell-based
Method: as §1

[21] = system: K. pneumoniae GC 2825 Act 1 + 3 additional; assay: as above; type: cell-based
Method: as §1

[22] = system: E. coli GC 6197 (TEM-1 + SHV-7 + CMY-2); assay: as above; type: cell-based
Method: as §1

[23] = system: E. coli GC 1480 OXA-1; assay: MIC microbroth dilution; β-lactamase class D; type: cell-based
Method: as §1

[24] = system: E. coli GC 1807 OXA-7; assay: MIC microbroth dilution; β-lactamase class D; type: cell-based
Method: as §1

[25] = system: E. coli GAR 5929 TEM, OXA, Act-1, CTX (By PCR only); assay: MIC microbroth dilution; β-lactamase class A, C, D; type: cell-based
Method: as §1

[26] = Klebsiella pneumoniae, Cefepime + 4 ug/ml Compound 2, read-out: MIC
[27] = Escherichia coli, Cefepime + 4 ug/ml Compound 2, read-out: MIC

class A β-lactamase TEM-1, sequence (P62593 24-286 limits assumed): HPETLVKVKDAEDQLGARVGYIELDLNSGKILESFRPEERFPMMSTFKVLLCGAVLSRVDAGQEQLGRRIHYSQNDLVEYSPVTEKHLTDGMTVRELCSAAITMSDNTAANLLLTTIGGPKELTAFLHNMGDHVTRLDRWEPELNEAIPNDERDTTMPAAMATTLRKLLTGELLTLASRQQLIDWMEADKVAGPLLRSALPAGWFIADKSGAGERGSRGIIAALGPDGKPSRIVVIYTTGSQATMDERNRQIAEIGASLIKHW

`O=C([O-])C1=CS[C@@H]2/C(=C\c3cn4c(n3)CCC4)C(=O)N12.[Na+]` [Compound 1, (5R), (6Z)-6-(6,7-Dihydro-5H-pyrrolo[1,2-a]imidazol-2-ylmethylene)-7-oxo-4-thia-1-aza-bicyclo[3.2.0]hept-2-ene-2-carboxylic Acid, Sodium Salt] was tested, and the MIC [1] was 0.12 µg/mL, the pIC50 [2] was 9.40 and the MIC [3] was over 16 µg/mL. The MIC [4] was 0.03 µg/mL, the MIC ([5]; Cefepime + 4 ug/ml Compound 1) was 0.25 µg/mL and the MIC ([6]; Cefepime + 4 ug/ml Compound 1) was 0.25 µg/mL. The MIC ([7]; Cefepime + 4 ug/ml Compound 1) was 0.06 µg/mL, the MIC ([8]; Cefepime + 4 ug/ml Compound 1) was 0.06 µg/mL and the MIC ([9]; Cefepime + 4 ug/ml Compound 1) was 0.03 µg/mL. The MIC [10] was 16 µg/mL, the MIC [11] was 16 µg/mL and the MIC ([12]; Cefepime + 4 ug/ml Compound 1) was 0.12 µg/mL. For the same compound, the MIC ([13]; Cefepime + 4 ug/ml Compound 1) was 0.12 µg/mL, the MIC ([14]; Cefepime + 4 ug/ml Compound 1) was 0.12 µg/mL and the MIC ([15]; Cefepime + 4 ug/ml Compound 1) was 0.12 µg/mL. The MIC ([16]; Cefepime + 4 ug/ml Compound 1) was 0.25 µg/mL, the MIC [17] was 0.06 µg/mL and the MIC ([18]; Cefepime + 4 ug/ml Compound 1) was 0.06 µg/mL. For the same compound, the MIC ([19]; Cefepime + 4 ug/ml Compound 1) was 0.50 µg/mL, the MIC ([20]; Cefepime + 4 ug/ml Compound 1) was 1 µg/mL and the MIC ([21]; Cefepime + 4 ug/ml Compound 1) was 0.12 µg/mL. For the same compound, the MIC ([22]; Cefepime + 4 ug/ml Compound 1) was 4 µg/mL, the MIC ([23]; E. coli GC 1480, Cefepime + 4 ug/ml Compound 1) was 0.06 µg/mL and the MIC ([24]; E. coli GC 1807, Cefepime + 4 ug/ml Compound 1) was under 0.015 µg/mL. For the same compound, the MIC ([25]; Cefepime + 4 ug/ml Compound 1) was 0.06 µg/mL.
`O=C(O)C1=CS[C@@H]2/C(=C\c3cn4c(n3)COCC4)C(=O)N12` [Compound 2, (5R), (6Z)-6-(5,6-Dihydro-8H-imidazo[2.1-c][1,4]oxazin-2-ylmethylene)-7-oxo-4-thia-1-azabicyclo[3.2.0]hept-2-ene-2-carboxylic Acid, Sodium Salt] was tested, and the pIC50 [2] was 9.22, the MIC [5, 26] was 0.12 µg/mL and the MIC [6, 26] was 0.25 µg/mL. For the same compound, the MIC [7, 26] was 0.06 µg/mL, the MIC [8, 26] was 0.03 µg/mL and the MIC [9, 26] was 0.06 µg/mL. The MIC [12, 26] was 0.06 µg/mL, the MIC [13, 26] was 0.06 µg/mL and the MIC [14, 26] was 0.12 µg/mL. It also gave an MIC [15, 26] of 0.12 µg/mL, an MIC [16, 26] of 0.12 µg/mL and an MIC [18, 27] of 0.06 µg/mL. The MIC [19, 27] was 0.5 µg/mL, the MIC [20, 26] was 1 µg/mL and the MIC [21, 26] was 0.12 µg/mL. The MIC [22, 27] was 2 µg/mL, the MIC ([23]; Escherichia coli, GC1480OXA1, E. coli GC 1480, Cefepime + 4 ug/ml Compound 2, read-out: MIC) was 0.06 µg/mL and the MIC ([24]; Escherichia coli, GC1807OXA7, E. coli GC 1807, Cefepime + 4 ug/ml Compound 2, read-out: MIC) was 0.03 µg/mL. The MIC [25, 27] was 0.12 µg/mL.

Reference: patent US20070129344A1, “Bicyclic 6-alkylidene-penem beta-lactamase inhibitors and beta-lactam antibiotic combination: a broad spectrum antibiotic” (priority 2005, published 2007)
